Entries after “also recorded” stand apart in the source; their conditions may differ.
Experiments:
[1] = test system: Type II collagen-induced arthritis (CIA); test: Collagen-induced arthritis (CIA) mouse model, clinical assessment; type: in vivo, DBA/1 LacJ mice; details: vs saline control mice; for number of involved (arthritic) paws: Formula III 40 mg/kg i.p. ×3/week or gavaged ×5/week, Enbrel 100 μg i.p. ×3/week, prednisolone 10 mg/kg gavaged ×5/week
From the text: Type II collagen-induced arthritis (CIA) in mice is an accepted experimental model of arthritis with a number of pathological, immunological and genetic features in common with rheumatoid arthritis. This disease is induced by immunization of susceptible strains of mice with type II collagen, the major component of joint cartilage. A progressive, inflammatory arthritis develops in the majority of immunized animals, which is characterized clinically by erythema and edema, with affected paw width increases of typically 100%. A clinical scoring index has been developed to assess disease progression to joint distortion and spondylitis. […] Immunological laboratory findings include high antibody levels to type II collagen and hypergammaglobulinemia.
(§1) This study was designed to evaluate the anti-inflammatory and anti-arthritic activity of compound of Formula III using the CIA model by observing changes in immune parameters due to treatment. The animals were administered oral corticosteroid, Enbrel, an injectable TNF inhibitor, and compound of Formula III using both oral and parenteral delivery. Seventy-five DBA/1 LacJ mice 8-10 weeks of age were obtained from Jackson Labs and quarantined in our facility for 10 days prior to experimentation. All mice weighed >16 grams at the start of the experiment. Mice were pre-bled by retro-orbital puncture, and injected with 100 μg Bovine type II collagen in Freund's complete adjuvant (FCA) intradermally at the base of the tail. Mice were monitored by daily examination for the onset of disease. Mice that developed CIA between 20 days post immunization and 42 days post immunization were assigned to one of five treatment groups on a rotational basis (to normalize onset date), and ten mice were assigned to each group. For administration, compound of Formula III was solubilized in sterile saline. To facilitate drugs delivered by oral administration, carboxymethylcellulose was added to a final concentration of 4% in all gavage solutions. Compounds were administered according to the following schedule: • Group 1. 100 μl sterile saline vehicle injected intraperitoneally (i.p.) ×3/week. • Group 2. 100 μl sterile saline containing compound of Formula III at 40 mg/kg injected i.p. ×3/week. • Group 3. 100 μl sterile saline containing 100 μg Enbrel injected i.p. ×3/week. • Group 4. 100 μl sterile saline containing compound of Formula III at 40 mg/kg gavaged ×5/week. • Group 5. 100 μl sterile saline containing prednisolone 10 mg/kg gavaged ×5/week.
Mice were weighed weekly, and overall health status noted. Arthritic animals were clinically assessed by visual inspection five times per week, and paw swelling quantified by caliper measurements made three times per week, until seven weeks after the initial onset of arthritis. All animals were assessed individually from the time of disease onset, and the appropriate findings were entered into clinical report forms.

[2] = test system: anti-type II collagen antibody; type: in vivo, DBA/1 LacJ mice; details: after seven weeks of treatment, Prednisolone 10 mg/kg gavaged ×5/week, Formula III 40 mg/kg i.p. ×3/week; for terminal anti-CII antibody levels compared with control mice: p<0.01
Experimental: as §1
All mice were pre-bled prior to the start of the trial, subsequently at onset of arthritis and at the completion of the trial. Sera were separated and stored at −80° C. ELISA assays were performed to determine anti-type II collagen antibody levels and total immunoglobulin levels.
ELISA plates (Nunc-Immuno plates, Denmark) were coated with 100 μl of coating buffer (0.4M phosphate buffer ph7.6) containing 5 μg of type II collagen, at 4° C. overnight. Plates were washed 3 times with PBS containing 0.05% Tween 20 (Sigma, St. Louis, Mo.) and non specific binding was blocked by PBS containing 5% non fat milk overnight at 4° C. Mouse sera diluted to 1/100 in 5% milk/PBS was added to each well and incubated overnight at 4° C. […] The resulting optical density was measured at 405 nm by using a UV max spectrophotometer (Molecular Devices, CA). […] Antibody binding was expressed as OD405 units-blank.

total serum Ig = test: Total serum immunoglobulin levels in CIA mice (ELISA); type: in vivo, DBA/1 LacJ mice; details: Prednisolone 10 mg/kg gavaged ×5/week; Formula III 40 mg/kg i.p. ×3/week
Experimental: This study was designed to evaluate the anti-inflammatory and anti-arthritic activity of compound of Formula III using the CIA model by observing changes in immune parameters due to treatment. The animals were administered oral corticosteroid, Enbrel, an injectable TNF inhibitor, and compound of Formula III using both oral and parenteral delivery. Seventy-five DBA/1 LacJ mice 8-10 weeks of age were obtained from Jackson Labs and quarantined in our facility for 10 days prior to experimentation. All mice weighed >16 grams at the start of the experiment. Mice were pre-bled by retro-orbital puncture, and injected with 100 μg Bovine type II collagen in Freund's complete adjuvant (FCA) intradermally at the base of the tail. Mice were monitored by daily examination for the onset of disease. Mice that developed CIA between 20 days post immunization and 42 days post immunization were assigned to one of five treatment groups on a rotational basis (to normalize onset date), and ten mice were assigned to each group. For administration, compound of Formula III was solubilized in sterile saline. […]
Serum Ig levels was assessed using an ELISA assay. […] The plate was read at 405 nm using a Photospectrometer (Molecular Devices), and the data analyzed using the SOFTmax analytical software package. […]

lymph node cells = test: Lymph node cell mitogen and antigen proliferative responses (MTT) from treated CIA mice; type: in vivo, DBA/1 LacJ mice; details: mice treated 40 mg/kg i.p. ×3/week; p<0.05
Experimental: This study was designed to evaluate the anti-inflammatory and anti-arthritic activity of compound of Formula III using the CIA model by observing changes in immune parameters due to treatment. The animals were administered oral corticosteroid, Enbrel, an injectable TNF inhibitor, and compound of Formula III using both oral and parenteral delivery. Seventy-five DBA/1 LacJ mice 8-10 weeks of age were obtained from Jackson Labs and quarantined in our facility for 10 days prior to experimentation. All mice weighed >16 grams at the start of the experiment. […] Mice were monitored by daily examination for the onset of disease. […]
Spleen and lymph nodes were removed at sacrifice, and mitogen responses to Con A and LPS, and antigen proliferative responses to type II collagen were determined using standard techniques. […] After incubation at 37° C. overnight, the optical density at 590 nm was read using a microplate photospectrometer (Molecular Devices, CA). The mean and OD values, which provide a measure of cell proliferation, were recorded for each cell sample with respect to antigen stimulation. Antigen specific responses were expressed as (OD590 [Stimulated Culture]−OD590 [Spontaneous proliferation culture])/OD590 [Spontaneous proliferation culture].

[3] = test system: plasma lipoprotein cholesterol and triglyceride; test: Antilipidemic activity in hamsters fed hypercholesterolemic diet; type: in vivo, Syrian Golden hamsters; details: day 8 of treatment
From the text: Eighty-five male Syrian Golden hamsters (F1B strain, BioBreeders, Fitchburg Mass.) approximately 8-10 weeks of age were acclimated to individual hanging polystyrene cages with bedding for 1 week and then fed a semipurified hypercholesterolemic diet (HCD) containing 25% casein, 20% hydrogenated coconut oil, 2% safflower oil, and 0.15% cholesterol by weight for 2 weeks prior to initiation of the experimental treatments (Table 1). Hamsters were then bled (Week 0) following an overnight fast (16 hr) to determine plasma concentrations of total cholesterol, HDL-C, nonHDL-C, and triglycerides and divided into 17 groups (n=5/group) with similar starting plasma HDL-C levels, and administered either compound of Formula II or vehicle once per day for 14 days.
Plasma total cholesterol, HCL-C, nonHDL-C, and triglycerides were then measured at day 8 (prior to gavage that day) and at day 15 (24 hr after last gavage) following and overnight fast (16 hr). Hamsters were maintained in accordance with the guidelines of the Animal Care Committee at the University of Massachusetts-Lowell Research Foundation and the guidelines prepared by the Committee on the Care and Use of Laboratory Animals of the Institute of Laboratory Animal Resources, National Research Council (DHEW publication no 85-23, revised 1985). Hamsters were housed in an environmentally controlled room with an alternating 12-h light/dark cycle and given ad libitum access to food and water except when food is withheld for the experimental protocols.
Blood was collected via the retro-orbital sinus into heparinized tubes from hamsters fasted for 16 h at days 0, 8, and 15. Plasma was harvested after centrifugation at 1500-×g at room temperature for 10 min and plasma total cholesterol and triglyceride concentrations were measured enzymatically. Plasma LDL cholesterol (combination of very low-density, intermediate, and low-density lipoprotein-cholesterol) was precipitated with phosphotungstate reagent and HDL cholesterol was measured in the supernatant. The concentration of LDL cholesterol was calculated as the difference between plasma TC and HDL cholesterol. The accuracy and precision of the procedures used for the measurements of plasma TC and HDL cholesterol were maintained by participation in the Lipid Standardization Program of the Centers for Disease Control and the National Heart, Blood and Lung Institute (Atlanta, Ga.). All reagents used were supplied by Sigma-Aldrich (St. Louis, Mo.). All assays were performed using a Cobas Mira Plus® (Cobas Mira Plus® is a registered trademark of Roche Diagnostic Systems, Inc.) clinical chemistry autoanalyzer using 10 μl of plasma for each sample (Roche Pharmaceuticals, Basel, Switzerland).

[4] = injected i.p. ×3/week (Formula III 40 mg/kg; Enbrel 100 μg)
[5] = gavaged ×5/week (Formula III 40 mg/kg; prednisolone 10 mg/kg)

Molecule	number of involved (arthritic) paws [1]	arthritis score [1, 4]	arthritis score [1, 5]	terminal anti-CII antibody levels compared with titers at disease onset [2]	terminal anti-CII antibody levels compared with control mice [2]	reduction of total serum Ig levels at the terminal bleed vs control mice (total serum Ig)	lymph node cell response to LPS (lymph node cells)	plasma HDL-C change compared to vehicle control ([3]; 0.9 mg/kg once per day) [%]	plasma nonHDL-C change compared to vehicle control ([3]; 0.9 mg/kg once per day) [%]	plasma total cholesterol change compared to vehicle control ([3]; 0.9 mg/kg once per day) [%]	plasma triglycerides change compared to vehicle control ([3]; 0.9 mg/kg once per day) [%]	plasma HDL-C change compared to vehicle control ([3]; 1.8 mg/kg once per day) [%]	plasma nonHDL-C change compared to vehicle control ([3]; 1.8 mg/kg once per day) [%]	plasma total cholesterol change compared to vehicle control ([3]; 1.8 mg/kg once per day) [%]	plasma triglycerides change compared to vehicle control ([3]; 1.8 mg/kg once per day) [%]	plasma HDL-C change compared to vehicle control ([3]; 3.6 mg/kg once per day) [%]	plasma nonHDL-C change compared to vehicle control ([3]; 3.6 mg/kg once per day) [%]	plasma total cholesterol change compared to vehicle control ([3]; 3.6 mg/kg once per day) [%]	plasma triglycerides change compared to vehicle control ([3]; 3.6 mg/kg once per day) [%]	arthritis score ([1]; gavaged ×5/week (Formula III 40 mg/kg; prednisolone 10 mg/kg), listed as prednisolone)
Enbrel	significantly lower number of arthritic paws	significantly reduced the arthritis score; also recorded: significant reduction																		
COc1cccc2c1[n+]([O-])c1cccc(O)c1[n+]2[O-] [compound of Formula III]	did not significantly influence the number of involved paws	marked effect; also recorded: significant reduction	did not exert a statistically significant effect	maintenance of titers equivalent to the levels at onset	significant reduction	not significantly different	significant reduction	−2	−36	−27	−37	7	−24	−17	−14	−4	−26	−21	−20	
C[C@]12C=CC(=O)C=C1CC[C@@H]1[C@@H]2[C@@H](O)C[C@@]2(C)[C@H]1CC[C@]2(O)C(=O)CO [Prednisolone, prednisolone, reference compound]	significantly lower number of arthritic paws		significant reduction	minor decrease	significant reduction	not significantly different														significantly reduced the arthritis score

— US20080269231A1, “Phenazine Compounds and Use Thereof in Autoimmune and Inflammatory Disease” (JJ Pharma, Inc., priority 2007, published 2008)
